How the values were obtained:
[3H]Dopamine reuptake = in vitro [3H]dopamine reuptake inhibition in rat brain tissue; format: biochemical; conditions: means of ≧ 3 separate determinations
[1] = biological target: [3H]Noradenaline reuptake; experiment: in vitro [3H]noradrenaline reuptake inhibition in rat brain tissue; format: biochemical; conditions: means of ≧ 3 separate determinations

Compound	Ki ([3H]Dopamine reuptake)	Ki [1]
CC(NC(C)(C)C)C(=O)c1cccc(Cl)c1 (stereo not shown) [Bupropion]	409 nM	2590 nM
COc1ccc(C(CN(C)C)C2(O)CCCCC2)cc1 (stereo not shown) [Venlafaxine]	2590 nM	196 nM

From patent US6372797B1, “Treatment of menstrual function” (Knoll Pharmaceutical Company, priority 1999, dated 2002)
